Experimental data published in PubChem BioAssay (NCI).
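Briefly, cells in 96-well plates were exposed to five compound concentrations for 48 h, and endpoints were estimated by linear interpolation. GI50 marks 50% less growth. TGI: total growth inhibition.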

Legend:
Test in all cases: growth of human tumour cells (NCI), 48 h
OVCAR-8 ovarian = tested on: OVCAR-8 ovarian
SK-OV-3 ovarian = tested on: SK-OV-3 ovarian
SNB-75 CNS = tested on: SNB-75 CNS
PC-3 prostate = tested on: PC-3 prostate
MOLT-4 leukemia = tested on: MOLT-4 leukemia
HOP-62 NSCLC = tested on: HOP-62 NSCLC
EKVX NSCLC = tested on: EKVX NSCLC
CAKI-1 renal = tested on: CAKI-1 renal

SMILES | GI50 (OVCAR-8 ovarian) [µM] | TGI (OVCAR-8 ovarian) [µM] | GI50 (SK-OV-3 ovarian) [µM] | TGI (SK-OV-3 ovarian) [µM] | GI50 (SNB-75 CNS) [µM] | TGI (SNB-75 CNS) [µM] | GI50 (PC-3 prostate) [µM] | TGI (PC-3 prostate) [µM] | GI50 (MOLT-4 leukemia) [µM] | TGI (MOLT-4 leukemia) [µM] | GI50 (HOP-62 NSCLC) [µM] | TGI (HOP-62 NSCLC) [µM] | GI50 (EKVX NSCLC) [µM] | TGI (EKVX NSCLC) [µM] | GI50 (CAKI-1 renal) [µM] | TGI (CAKI-1 renal) [µM]
CC(=O)OC1Oc2cc(C)c(C)cc2-c2oc(=O)c(-c3ccc(F)cc3)cc21 (centres undefined) | 6.67 | > 100 | 4.38 | 54 | 4.34 | 80.8 | 9.67 | 39.8 | 3.1 | 12.1 | 12.9 | 72.5 | 5.23 | > 100 | 15.8 | > 100
O=C1CCC(N2Cc3c(C#CCCCNC(=O)c4cc5c(o4)C(=O)c4ccccc4C5=O)cccc3C2=O)C(=O)N1 (centres undefined) | 3.24 | 87 | 15.9 | 30.4 | 2.09 | 4.72 | 2.95 | 56.2 | 3.08 | 12.5 | 2.89 | 9.32 | 15 | 31.1 | 14.3 | 30.7
O=C1CC[C@H](c2ccc(O)c3c2C(=O)[C@@H]2O[C@@H]2C3=O)c2cccc(O)c21 | 3.36 | 11.2 | 16.6 | 30.4 | 26.7 | > 100 | 2.52 | 7.22 | 2.71 | 17.4 | 3.1 | 11.6 | 13.1 | 28.2 | 1.41 | 9.33
COc1cc(-n2cnc(-c3ccc(Cl)cc3)c2)cc(OC)c1OC | > 100 | > 100 | 21.2 | 52.2 | 16.5 | 34.8 | 12.7 | 31.7 | 19.2 | 39.9 | 24.1 | 71.5 | > 100 | > 100 | 24.9 | > 100
Cn1ccnc1C(=O)/C=C/c1ccc(CC(=O)Nc2ccc(F)cc2)cc1 | 5.71 | > 25 | 9.81 | > 25 | 3.74 | > 25 | 1.99 | 7.96 | 2.32 | 18.1 | 4.68 | 19 | 5.5 | > 25 | 3.14 | > 25
CCn1c(-c2nonc2N)nc2cncc(C(=O)NCCNC)c21 | 15.3 | > 25 | 17.3 | > 25 | 0.246 | 6.61 | > 25 | > 25 | > 25 | > 25 | 3.11 | > 25 | 0.903 | > 25 | 1.56 | 14.4
N#CCCSC(=S)C1CCCC1=N (centres undefined) | – | > 100 | – | > 100 | – | 94.4 | – | > 100 | – | > 100 | – | > 100 | – | > 100 | – | > 100
O=C(NCCNc1nccc(-c2c(-c3ccc(F)cc3)nc3sccn23)n1)c1ccccc1 | 5.95 | > 100 | 12.5 | 53.8 | 7.27 | 62.5 | 10.8 | 89.2 | 12.2 | 54.8 | 16.9 | 34.7 | 7.51 | 56.1 | 2.48 | 25.1
C=CC[C@@H]1/C=C(\C)C[C@H](C)C[C@H](OC)[C@H]2O[C@@](O)(C(=O)C(=O)N3CCCC[C@H]3C(=O)O[C@H](/C(C)=C/C3CC[C@@H](O)[C@H](OC)C3)[C@H](C)[C@@H](O)CC1=O)[C@H](C)C[C@@H]2OC (some centres undefined) | 16 | 39.3 | 16.7 | 31.2 | 12.3 | 25.1 | 12.1 | 25.7 | 14.4 | 41.6 | 16.2 | 31.1 | 14.2 | 34.5 | 12.9 | 33.4
NC1=CC(=O)c2nc3ccccc3c3ccnc1c23 | 2.39 | 18.5 | 12 | > 52.9 | 0.552 | 23.5 | 6.53 | > 48 | 3.21 | > 100 | 4.47 | > 45.1 | 9.14 | 29.4 | 4.98 | > 95.6
CCCCCCCCCCCCCCCCCC(=O)OCC(COC1OC(CS(=O)(=O)O)C(O)C(O)C1O)OC(=O)CCCCCCCCCCCCCCCCC (centres undefined) | – | > 100 | – | > 100 | – | > 100 | – | > 100 | – | > 100 | – | > 100 | – | > 100 | – | > 100
CCC(c1ccc2cc(O)ccc2c1)C(C)(C)C(=O)O (centres undefined) | – | > 100 | – | > 100 | – | > 100 | – | > 100 | – | > 100 | – | > 100 | – | > 100 | – | > 100
CCOC(=O)c1c(Cl)c2c(n1Cc1cccc(OC)c1)-c1oncc1CC2 | 7.27 | > 100 | 3.36 | > 100 | 1.61 | 5.35 | 5.4 | > 100 | 3.48 | > 100 | 2.89 | > 100 | 3.05 | > 100 | 1.85 | > 100
